The test has as its target Tubulin beta chain (Sus scrofa) (UniProt P02554). In words: Stimulation of porcine MAP-rich beta-tubulin polymerization at 25 ug/mL by light scattering assay.

Active and inactive are the calls of the source. No cut-off for these calls is given here.

Tubulin beta chain (Sus scrofa), sequence (P02554 whole entry): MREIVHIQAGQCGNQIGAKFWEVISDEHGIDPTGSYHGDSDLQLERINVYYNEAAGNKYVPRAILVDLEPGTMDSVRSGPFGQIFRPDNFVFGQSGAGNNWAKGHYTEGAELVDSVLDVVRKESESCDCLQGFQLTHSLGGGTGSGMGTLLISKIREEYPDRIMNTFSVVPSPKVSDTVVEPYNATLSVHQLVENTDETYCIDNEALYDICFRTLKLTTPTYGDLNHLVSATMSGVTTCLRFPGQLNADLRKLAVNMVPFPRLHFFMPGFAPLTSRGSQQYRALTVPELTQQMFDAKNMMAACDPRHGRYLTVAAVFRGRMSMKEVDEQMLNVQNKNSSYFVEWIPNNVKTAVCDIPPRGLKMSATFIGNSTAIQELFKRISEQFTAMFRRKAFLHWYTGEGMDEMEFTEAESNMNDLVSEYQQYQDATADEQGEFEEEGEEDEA

Turning to `CC(=O)O[C@H]1C(=O)[C@@]2(C)[C@H]([C@H](OC(=O)c3ccccc3)[C@]3(O)C[C@H](OC(=O)[C@H](O)[C@@H](NC(=O)c4ccccc4)c4ccccc4)C(C)=C1C3(C)C)[C@]1(OC(C)=O)CO[C@@H]1C[C@@H]2O`, the result was Active.

The values above are taken from ChEMBL document CHEMBL2346578, “Substituted 1,6-diphenylnaphthalenes as FtsZ-targeting antibacterial agents” (2013).
